Reference: patent US8901138B2, “Sulfoximine substituted quinazolines for pharmaceutical compositions” (Boehringer Ingelheim International GmbH, priority 2012, dated 2014)

molecular target: T1, MNK2a (Homo sapiens, UniProt Q9HBH9); assay: MNK2a in vitro kinase assay (assay 1), ADP-Glo; format: biochemical; conditions: preactivated GST-MNK2a, 20 μM ATP, read-out: MNK2 IC50
T1 construct: made in house
Method in brief: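 Preactivated GST-MNK2a (10 nM) with eIF4E peptide (25 μM) and ATP (20 μM) in HEPES/DTT/MgCl2 buffer, 90 min at room temperature, final DMSO <3%. ADP formed read by ADP-Glo luminescence and normalised to vehicle and 20 μM reference-inhibitor controls; IC50 from dose-response curves.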

T1 sequence (Q9HBH9 whole entry): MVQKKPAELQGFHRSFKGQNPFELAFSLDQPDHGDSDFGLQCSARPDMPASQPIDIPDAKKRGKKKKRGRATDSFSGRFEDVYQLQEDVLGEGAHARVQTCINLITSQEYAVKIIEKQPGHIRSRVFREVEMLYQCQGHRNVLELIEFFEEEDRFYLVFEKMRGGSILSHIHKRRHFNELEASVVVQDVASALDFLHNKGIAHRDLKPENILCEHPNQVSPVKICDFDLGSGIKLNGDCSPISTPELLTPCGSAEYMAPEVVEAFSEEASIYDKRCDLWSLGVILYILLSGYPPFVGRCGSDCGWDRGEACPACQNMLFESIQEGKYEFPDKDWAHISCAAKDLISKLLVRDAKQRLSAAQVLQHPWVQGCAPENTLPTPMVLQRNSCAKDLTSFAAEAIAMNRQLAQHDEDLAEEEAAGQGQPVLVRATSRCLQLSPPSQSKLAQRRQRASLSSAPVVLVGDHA

IC50 | SMILES
2 nM | C=Cc1cc(N=S(C)(C)=O)cc2ncnc(Nc3ccc(F)cc3O[C@H]3CCOC3)c12 [Example 7.7]
6 nM | Cc1cc(N=S(C)(C)=O)cc2ncnc(Nc3ccc(C#N)cc3OC3CCOCC3)c12 [Example 7.6]
7 nM | CO[C@H]1CC[C@H](Oc2cc(F)ccc2Nc2ncnc3cc(N=S4(=O)CCN(C(=O)N(C)C)CC4)cc(C)c23)CC1 [Example 7.5]
5 nM | CS(C)(=O)=Nc1cc(SCF)c2c(Nc3ccc(F)cc3O[C@H]3CCOC3)ncnc2c1 [Example 7.11]
14 nM | COC1CCCC(Oc2cc(F)ccc2Nc2ncnc3cc(N=S(C)(C)=O)cc(C)c23)C1 (racemic) [Example 4.12]
4 nM | Cc1cc(N=S(C)(C)=O)cc2ncnc(Nc3ccc(F)cc3OC3CC3)c12 [Example 7.12]
7 nM | CNC(=O)N1CCS(=O)(=Nc2cc(C)c3c(Nc4ccc(F)cc4O[C@H]4CC[C@H](OC)CC4)ncnc3c2)CC1 [Example 7.4]

The next lines start with the compound.

SMILES | IC50
CS(C)(=O)=Nc1cc(F)c2c(Nc3cccnc3O[C@@H]3CCOC3)ncnc2c1 [Example 2.53] | 13 nM
Cc1cc(N=S(C)(C)=O)cc2ncnc(Nc3cccnc3O[C@H]3CCCNC3)c12 [Example 1.37] | 4 nM
Cc1cc(N=S(C)(C)=O)cc2ncnc(Nc3ccc(F)cc3O[C@@H]3CO[C@@H]4CCO[C@@H]43)c12 [Example 2.121] | 4 nM
CS(C)(=O)=Nc1cc(Cl)c2c(Nc3ccc(F)cc3O[C@H]3CC[C@H](O)CC3)ncnc2c1 [Example 1.17] | 2 nM
COc1cc(N=S(C)(C)=O)cc2ncnc(Nc3ccc(F)cc3O[C@@H]3CO[C@H]4[C@@H]3OC[C@H]4OC)c12 [Example 2.1] | 1 nM
Cc1cc(N=S(C)(C)=O)cc2ncnc(Nc3ccc(C#N)nc3OC3CCOCC3)c12 [Example 1.38] | 12 nM
Cc1cc(N=S2(=O)CCCCC2)cc2ncnc(Nc3ccc(F)cc3O[C@@H]3CO[C@H]4[C@@H]3OC[C@H]4O)c12 [Example 2.51] | 3 nM
Cc1cc(N=S(C)(C)=O)cc2ncnc(Nc3ccc(F)cc3OC3(C)COC3)c12 [Example 1.31] | 13 nM
Cc1cc(N=S(C)(C)=O)cc2ncnc(Nc3ccc(F)cc3O[C@@H]3CO[C@H]4[C@@H]3OC[C@@]4(C)O)c12 [Example 2.45] | 2 nM
Cc1cc(N=S(C)(C)=O)cc2ncnc(Nc3cccnc3O[C@H]3CC[C@H](O)CC3)c12 [Example 2.31] | 2 nM
CO[C@@H]1CO[C@H]2[C@@H]1OC[C@H]2Oc1cc(F)ccc1Nc1ncnc2cc(N=S(C)(C)=O)cc(Cl)c12 [Example 1.2] | 1 nM
CO[C@H]1CC[C@H](Oc2cc(F)ccc2Nc2ncnc3cc(N=S4(=O)CCNCC4)cc(C)c23)CC1 [Example 3.10] | 8 nM
Cc1cc(N=S2(=O)CCCC2)cc2ncnc(Nc3ccc(F)cc3O[C@@H]3CO[C@@H]4CCC[C@@H]43)c12 [Example 2.123] | 1 nM

molecular target: MNK1a (Homo sapiens, UniProt Q9BUB5); assay: MNK1 in vitro kinase assay (assay 2), Z'-LYTE; format: biochemical; conditions: compound concentration of 1 μM
Sequence (Q9BUB5 1-424 isoform Q9BUB5-2): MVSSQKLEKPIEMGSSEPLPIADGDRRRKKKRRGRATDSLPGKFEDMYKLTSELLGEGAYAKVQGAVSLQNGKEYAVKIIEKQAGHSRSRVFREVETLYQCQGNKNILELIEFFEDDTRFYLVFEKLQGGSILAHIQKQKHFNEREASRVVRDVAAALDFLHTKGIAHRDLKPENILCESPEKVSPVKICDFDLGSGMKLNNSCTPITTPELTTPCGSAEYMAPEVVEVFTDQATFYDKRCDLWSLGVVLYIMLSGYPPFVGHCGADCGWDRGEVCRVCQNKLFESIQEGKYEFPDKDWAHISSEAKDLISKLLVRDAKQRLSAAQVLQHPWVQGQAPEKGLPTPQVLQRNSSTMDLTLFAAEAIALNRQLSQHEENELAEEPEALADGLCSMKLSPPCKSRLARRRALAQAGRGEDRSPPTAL
Excerpt: B. MNK1 In Vitro Kinase Assay (Assay 2)
MNK1 Data can be obtained from the MNK1 Z′-LYTE® assay. The MNK1 Z′-LYTE® screening protocol and assay conditions are also described on www.invitrogen.com.
The assay is described as follows:
The Z′-LYTE® biochemical assay employs a fluorescence-based, coupled-enzyme format and is based on the differential sensitivity of phosphorylated and non-phosphorylated peptides to proteolytic cleavage. The peptide substrate is labeled with two fluorophores—one at each end—that make up a FRET pair.
In the primary reaction, the kinase transfers the gamma-phosphate of ATP to a single tyrosine, serine or threonine residue in a synthetic FRET-peptide. In the secondary reaction, a site-specific protease recognizes and cleaves non-phosphorylated FRET-peptides. Phosphorylation of FRET-peptides suppresses cleavage by the Development Reagent. Cleavage disrupts FRET between the donor (i.e., coumarin) and acceptor (i.e., fluorescein) fluorophores on the FRET-peptide, whereas uncleaved, phosphorylated FRET-peptides maintain FRET. A ratiometric method, which calculates the ratio (the Emission Ratio) of donor emission to acceptor emission after excitation of the donor fluorophore at 400 nm, is used to quantitate reaction progress, as shown in the equation below. Emission Ratio=Coumarin Emission(445 nm)/Fluorescein Emission(520 nm)
ASSAY SETUP: The inhibition of kinase activity of MNK1a was assessed using pre-activated GST-MNK1a. The 2×MKNK1 (MNK1) mixture is prepared in 50 mM HEPES pH 7.5, 0.01% BRIJ-35, 10 mM MgCl2, 4 mM MnCl2, 1 mM EGTA, 2 mM DTT. The final 10 μL Kinase Reaction consists of 13.5-54 ng MKNK1 (MNK1) and 2 μM Ser/Thr 07 in 50 mM HEPES pH 7.5, 0.01% BRIJ-35, 10 mM MgCl2, 2 mM MnCl2, 1 mM EGTA, 1 mM DTT. After the 1 hour Kinase Reaction incubation, 5 μL of a 1:32768 dilution of Development Reagent A is added.
The Test Compounds are screened in 1% DMSO (final) in the well.
All Peptide/Kinase Mixtures are diluted to a 2× working concentration in the MNK1 Kinase Buffer.
All ATP Solutions are diluted to a 4× working concentration in Kinase Buffer (50 mM HEPES pH 7.5, 0.01% BRIJ-35, 10 mM MgCl2, 1 mM EGTA).
Development Reagent Solution:
The Development Reagent is diluted in Development Buffer
Bar-coded Corning, low volume NBS, 384-well plate (Corning Cat. #3676)
1. 2.5 μL-4× Test Compound
2. 5 μL-2× Peptide/Kinase Mixture
5. 60-minute Kinase Reaction incubation at room temperature
6. 5 μL-Development Reagent Solution
8. 60-minute Development Reaction incubation at room temperature
9. Read on fluorescence plate reader and analyze the data
The following equations are used for each set of data points: […]
Correction for Background Fluorescence: FSample−FITCFl Ctl
Emission Ratio (using values corrected for background fluorescence):Coumarin
Emission (445 nm)/Fluorescein Emission (520 nm)
% Phosphorylation (% Phos): 1−((Emission Ratio×F100%)−C100%)/((C0%−C100%)+[Emission Ratio×(F100%−F0%)])*100 % Inhibition: 1−(% PhosSample/% Phos0% Inhibition Ctl)*100 FI=Fluorescence Intensity C100%=Average Coumarin emission signal of the 100% Phos. Control C0%=Average Coumarin emission signal of the 0% Phos. Control F100%=Average Fluorescein emission signal of the 100% Phos. Control F0%=Average Fluorescein emission signal of the 0% Phos. Control Graphing Software
SelectScreen® Kinase Profiling Service uses XLfit from IDBS. The dose response curve is curve fit to model number 205 (sigmoidal dose-response model).

inhibition at 1 µM | SMILES
97% | C=Cc1cc(N=S(C)(C)=O)cc2ncnc(Nc3ccc(F)cc3O[C@H]3CCOC3)c12 [Example 7.7]
99% | Cc1cc(N=S(C)(C)=O)cc2ncnc(Nc3ccc(C#N)cc3OC3CCOCC3)c12 [Example 7.6]
77% | CO[C@H]1CC[C@H](Oc2cc(F)ccc2Nc2ncnc3cc(N=S4(=O)CCN(C(=O)N(C)C)CC4)cc(C)c23)CC1 [Example 7.5]
98% | CS(C)(=O)=Nc1cc(SCF)c2c(Nc3ccc(F)cc3O[C@H]3CCOC3)ncnc2c1 [Example 7.11]
84% | COC1CCCC(Oc2cc(F)ccc2Nc2ncnc3cc(N=S(C)(C)=O)cc(C)c23)C1 (racemic) [Example 4.12]
88% | CNC(=O)N1CCS(=O)(=Nc2cc(C)c3c(Nc4ccc(F)cc4O[C@H]4CC[C@H](OC)CC4)ncnc3c2)CC1 [Example 7.4]

Second part, the compound before the results:

SMILES | inhibition at 1 µM
CS(C)(=O)=Nc1cc(F)c2c(Nc3cccnc3O[C@@H]3CCOC3)ncnc2c1 [Example 2.53] | 94%
Cc1cc(N=S(C)(C)=O)cc2ncnc(Nc3ccc(F)cc3O[C@@H]3CO[C@@H]4CCO[C@@H]43)c12 [Example 2.121] | 89%
Cc1cc(N=S(C)(C)=O)cc2ncnc(Nc3ccc(C#N)nc3OC3CCOCC3)c12 [Example 1.38] | 99%
Cc1cc(N=S2(=O)CCCCC2)cc2ncnc(Nc3ccc(F)cc3O[C@@H]3CO[C@H]4[C@@H]3OC[C@H]4O)c12 [Example 2.51] | 101%
Cc1cc(N=S(C)(C)=O)cc2ncnc(Nc3ccc(F)cc3OC3(C)COC3)c12 [Example 1.31] | 87%
Cc1cc(N=S(C)(C)=O)cc2ncnc(Nc3ccc(F)cc3O[C@@H]3CO[C@H]4[C@@H]3OC[C@@]4(C)O)c12 [Example 2.45] | 90%
Cc1cc(N=S(C)(C)=O)cc2ncnc(Nc3cccnc3O[C@H]3CC[C@H](O)CC3)c12 [Example 2.31] | 100%
CO[C@H]1CC[C@H](Oc2cc(F)ccc2Nc2ncnc3cc(N=S4(=O)CCNCC4)cc(C)c23)CC1 [Example 3.10] | 88%
Cc1cc(N=S2(=O)CCCC2)cc2ncnc(Nc3ccc(F)cc3O[C@@H]3CO[C@@H]4CCC[C@@H]43)c12 [Example 2.123] | 100%

same assay, conditions: pre-activated GST-MNK1a

IC50 | SMILES
28 nM | Cc1cc(N=S(C)(C)=O)cc2ncnc(Nc3cccnc3O[C@H]3CCCNC3)c12 [Example 1.37]
39 nM | CS(C)(=O)=Nc1cc(Cl)c2c(Nc3ccc(F)cc3O[C@H]3CC[C@H](O)CC3)ncnc2c1 [Example 1.17]
11 nM | COc1cc(N=S(C)(C)=O)cc2ncnc(Nc3ccc(F)cc3O[C@@H]3CO[C@H]4[C@@H]3OC[C@H]4OC)c12 [Example 2.1]
13 nM | CO[C@@H]1CO[C@H]2[C@@H]1OC[C@H]2Oc1cc(F)ccc1Nc1ncnc2cc(N=S(C)(C)=O)cc(Cl)c12 [Example 1.2]
87 nM | Cc1cc(N=S(C)(C)=O)cc2ncnc(Nc3ccc(F)cc3OC3CC3)c12 [Example 7.12]
